Laboratory results as given in US20240059682A1, “THYROID HORMONE RECEPTOR BETA AGONIST COMPOUNDS” (Terns Pharmaceuticals, Inc., priority 2021, published 2024).
Where two headings read alike, the source gives them in different places.

Experiments:
[1] = molecular target: THR-β/RXR-α (Homo sapiens (Human), UniProt P10828); assay: THR/RXR heterodimer assay (THR-β/RXR-α); format: biochemical; conditions: RXR heterodimer assay; for THRß-Selectivity: normalized to T3 activity
[2] = Pharmacokinetics study in rats; format: in vivo, male Sprague-Dawley (SD) rats; conditions: male SD rats; for AUC(0-inf) / half-life / clearance / Vd / bioavailability / AUC(0-t) / Cmax: Sprague-Dawley, rat, plasma; for clearance: mean±SD, read-out: plasma clearance (CL); for Vd: read-out: volume of distribution (Vdss)
Procedure: Examples 12 and 14 were administered via a 30-minute intravenous (IV) infusion at approximately 1 mg/kg and orally at approximately 3 mg/kg to male Sprague-Dawley (SD) rats. The concentrations of Examples 12 and 14 in rat plasma was determined with an LC-MS/MS method.

[3] = Tissue distribution in rats; format: in vivo, male Sprague-Dawley (SD) rats; conditions: 2 hours post-dose, male SD rats; for Kp at 2 h / concentration at 2 h: Sprague-Dawley, rat
Procedure: Examples 12 and 14 were administered via a 30-minute intravenous (IV) infusion at approximately 2 mg/kg to jugular vein cannulated male Sprague-Dawley (SD) rats. All animals were euthanized by CO2 inhalation at 2 hours post-dose. The concentrations of Examples 12 and 14 in rat plasma and liver, heart and kidney tissues were determined with an LC-MS/MS method.

[4] = molecular target: TR beta-LBD (Homo sapiens (Human), UniProt P10828); conditions: TR-FRET; derived from T3-selectivity normalized data
[5] = molecular target: THR-α/RXR-α (Homo sapiens (Human), UniProt P10827); assay: THR/RXR heterodimer assay (THR-α/RXR-α); format: biochemical; conditions: RXR heterodimer assay; read-out: EC50 THRα-het
Chain of THR-α/RXR-α (P10827 other isoform, or with tags, fused parts or gaps): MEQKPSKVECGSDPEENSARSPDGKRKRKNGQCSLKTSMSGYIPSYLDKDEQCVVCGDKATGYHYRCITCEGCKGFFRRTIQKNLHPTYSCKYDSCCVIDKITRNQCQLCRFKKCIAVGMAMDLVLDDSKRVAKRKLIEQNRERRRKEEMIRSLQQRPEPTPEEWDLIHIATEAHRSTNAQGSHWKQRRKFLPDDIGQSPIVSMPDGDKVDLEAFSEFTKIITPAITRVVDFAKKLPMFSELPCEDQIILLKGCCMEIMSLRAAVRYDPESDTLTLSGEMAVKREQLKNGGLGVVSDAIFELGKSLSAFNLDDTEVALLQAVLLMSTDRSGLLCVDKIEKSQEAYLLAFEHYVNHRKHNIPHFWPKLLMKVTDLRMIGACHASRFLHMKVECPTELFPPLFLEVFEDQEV
Chain of THR-α/RXR-α (P19793 225-462 partner): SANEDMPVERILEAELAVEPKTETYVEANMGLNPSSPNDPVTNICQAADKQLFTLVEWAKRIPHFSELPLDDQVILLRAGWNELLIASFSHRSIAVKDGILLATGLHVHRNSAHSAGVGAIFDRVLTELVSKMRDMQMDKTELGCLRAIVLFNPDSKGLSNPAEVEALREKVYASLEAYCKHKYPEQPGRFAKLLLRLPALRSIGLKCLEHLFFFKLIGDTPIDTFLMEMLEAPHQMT
Chain of THR-α/RXR-α (Q15596 679-703 partner): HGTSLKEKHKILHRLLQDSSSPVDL

Chain of THR-β/RXR-α (P10828 202-461): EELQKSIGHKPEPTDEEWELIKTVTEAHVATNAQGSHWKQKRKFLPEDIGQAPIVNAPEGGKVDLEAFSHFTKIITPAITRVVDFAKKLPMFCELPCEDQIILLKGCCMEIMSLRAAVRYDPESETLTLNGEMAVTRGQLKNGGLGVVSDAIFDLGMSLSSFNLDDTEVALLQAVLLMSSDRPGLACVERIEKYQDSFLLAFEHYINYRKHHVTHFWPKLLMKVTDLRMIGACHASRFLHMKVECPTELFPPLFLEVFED
Chain of THR-β/RXR-α (P19793 225-462 partner): as the sequence (P19793 225-462 partner) above
Chain of TR beta-LBD (P10828 whole entry, looked up, the tested form may be a part): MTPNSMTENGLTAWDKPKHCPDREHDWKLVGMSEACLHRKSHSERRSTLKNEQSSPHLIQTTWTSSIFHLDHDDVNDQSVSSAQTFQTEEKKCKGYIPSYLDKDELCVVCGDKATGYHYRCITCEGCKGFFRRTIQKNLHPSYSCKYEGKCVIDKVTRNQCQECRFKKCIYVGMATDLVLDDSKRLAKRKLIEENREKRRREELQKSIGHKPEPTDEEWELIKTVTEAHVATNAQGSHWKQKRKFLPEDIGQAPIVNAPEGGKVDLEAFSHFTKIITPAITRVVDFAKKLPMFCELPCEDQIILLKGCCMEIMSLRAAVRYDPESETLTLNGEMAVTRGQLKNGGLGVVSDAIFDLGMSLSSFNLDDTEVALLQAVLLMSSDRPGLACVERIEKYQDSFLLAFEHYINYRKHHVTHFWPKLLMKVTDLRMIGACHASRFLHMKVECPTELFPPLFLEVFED

## N#Cc1nn(-c2cc(Cl)c(Oc3ccc4[nH]c(=O)n(C5CC5)c4c3)c(Cl)c2)c(=O)[nH]c1=O [Example 8, 2-(3,5-dichloro-4-((3-cyclopropyl-2-oxo-2,3-dihydro-1H-benzo[d]imidazol-5-yl)oxy)phenyl)-3,5-dioxo-2,3,4,5-tetrahydro-1,2,4-triazine-6-carbonitrile]
[1]
  THRß-Selectivity: 7.2

## CC1(n2c(=O)[nH]c3ccc(Oc4c(Cl)cc(-n5nc(C#N)c(=O)[nH]c5=O)cc4Cl)cc32)CC1 [Example 14, 2-(3,5-dichloro-4-((3-(1-methylcyclopropyl)-2-oxo-2,3-dihydro-1H-benzo[d]imidazol-5-yl)oxy)phenyl)-3,5-dioxo-2,3,4,5-tetrahydro-1,2,4-triazine-6-carbonitrile]
[2]; IV infusion 1.09 mg/kg
  AUC(0-inf): 0.55 ± 0.0196 µg·h/mL
  half-life: 1.51 ± 0.54 h
  clearance: 1.82 ± 0.0642 L/h/kg
  Vd: 1.28 ± 0.387 L/kg
[2]; oral 3.18 mg/kg vs IV 1.09 mg/kg
  bioavailability: 11.5%
[2]; oral 3.18 mg/kg
  AUC(0-inf): 0.19 ± 0.0287 µg·h/mL
  AUC(0-t): 0.178 ± 0.0255 µg·h/mL
  Cmax: 0.031 ± 0.00592 µg/mL
  time post-dose at which Cmax was reached: 4.0 ± 2.0 h
[3]; IV infusion 2.16 mg/kg
  tissue concentration in heart: below the limit of detection
[3]; kidney/plasma, IV infusion 2.16 mg/kg, read-out: tissue/plasma ratio kidney/plasma
  Kp at 2 h: 6.25 ± 2.13
[3]; kidney, IV infusion 2.16 mg/kg, read-out: tissue concentration in kidney
  concentration at 2 h: 94 ± 23.5 ng/g
[3]; liver/plasma, IV infusion 2.16 mg/kg, read-out: tissue/plasma ratio liver/plasma
  Kp at 2 h: 29 ± 24.9
[3]; liver, IV infusion 2.16 mg/kg, read-out: tissue concentration in liver
  concentration at 2 h: 413 ± 303 ng/g
[3]; plasma, IV infusion 2.16 mg/kg, read-out: plasma concentration
  concentration at 2 h: 0.0155 ± 0.0037 µg/mL
[1]
  THRß-Selectivity: 12.0

## O=C(Nc1cc(Cl)c(Oc2ccc3[nH]c(=O)n(C4CC4)c3c2)c(Cl)c1)c1noc(=O)[nH]1 [Example 1, N-(3,5-dichloro-4-((3-cyclopropyl-2-oxo-2,3-dihydro-1H-benzo[d]imidazol-5-yl)oxy)phenyl)-5-oxo-4,5-dihydro-1,2,4-oxadiazole-3-carboxamide]
[1]
  THRß-Selectivity: 5.1

## COc1nc2ccc(Oc3c(Cl)cc(NC(=O)c4noc(=O)[nH]4)cc3Cl)cc2n1C1(C)CC1 [Example 11, N-(3,5-dichloro-4-((2-methoxy-1-(1-methylcyclopropyl)-1H-benzo[d]imidazol-6-yl)oxy)phenyl)-5-oxo-4,5-dihydro-1,2,4-oxadiazole-3-carboxamide]
[1]
  THRß-Selectivity: 17.7

## COc1nc2ccc(Oc3c(Cl)cc(NC(=O)c4noc(=O)[nH]4)cc3Cl)cc2n1C [Example 3, N-(3,5-dichloro-4-((2-methoxy-1-methyl-1H-benzo[d]imidazol-6-yl)oxy)phenyl)-5-oxo-4,5-dihydro-1,2,4-oxadiazole-3-carboxamide]
[1]
  THRß-Selectivity: 9.7

## CC(C)(C)n1c(=O)[nH]c2ccc(Oc3c(Cl)cc(-n4nc(C#N)c(=O)[nH]c4=O)cc3Cl)cc21 [Example 16, 2-(4-((3-(tert-butyl)-2-oxo-2,3-dihydro-1H-benzo[d]imidazol-5-yl)oxy)-3,5-dichlorophenyl)-3,5-dioxo-2,3,4,5-tetrahydro-1,2,4-triazine-6-carbonitrile]
[1]
  THRß-Selectivity: 9.8

## O=C(Nc1cc(Cl)c(Oc2ccc3[nH]c(=O)n(C4(C(F)F)CC4)c3c2)c(Cl)c1)c1noc(=O)[nH]1 [Example 17, N-(3,5-dichloro-4-((3-(1-(difluoromethyl)cyclopropyl)-2-oxo-2,3-dihydro-1H-benzo[d]imidazol-5-yl)oxy)phenyl)-5-oxo-4,5-dihydro-1,2,4-oxadiazole-3-carboxamide]
[1]
  THRß-Selectivity: 10.1

## COc1nc2ccc(Oc3c(Cl)cc(NC(=O)c4noc(=O)[nH]4)cc3Cl)cc2n1C1CC1 [Example 7, N-(3,5-dichloro-4-((1-cyclopropyl-2-methoxy-1H-benzo[d]imidazol-6-yl)oxy)phenyl)-5-oxo-4,5-dihydro-1,2,4-oxadiazole-3-carboxamide]
[1]
  THRß-Selectivity: 21.2

## N#Cc1nn(-c2cc(Cl)c(Oc3ccc4[nH]c(=O)n(C5(C(F)F)CC5)c4c3)c(Cl)c2)c(=O)[nH]c1=O [Example 18, 2-(3,5-dichloro-4-((3-(1-(difluoromethyl)cyclopropyl)-2-oxo-2,3-dihydro-1H-benzo[d]imidazol-5-yl)oxy)phenyl)-3,5-dioxo-2,3,4,5-tetrahydro-1,2,4-triazine-6-carbonitrile]
[1]
  THRß-Selectivity: 8.2

## CC(C)(C)n1c(=O)[nH]c2ccc(Oc3c(Cl)cc(NC(=O)c4noc(=O)[nH]4)cc3Cl)cc21 [Example 10, N-(4-((3-(tert-butyl)-2-oxo-2,3-dihydro-1H-benzo[d]imidazol-5-yl)oxy)-3,5-dichlorophenyl)-5-oxo-4,5-dihydro-1,2,4-oxadiazole-3-carboxamide]
[1]
  THRß-Selectivity: 7.7

## Cn1c(=O)[nH]c2ccc(Oc3c(Cl)cc(NC(=O)c4noc(=O)[nH]4)cc3Cl)cc21 [Example 19, N-(3,5-dichloro-4-((3-methyl-2-oxo-2,3-dihydro-1H-benzo[d]imidazol-5-yl)oxy)phenyl)-5-oxo-4,5-dihydro-1,2,4-oxadiazole-3-carboxamide]
[1]
  THRß-Selectivity: 5.3
[4]
  THRß-Selectivity: 14.1

## CC1(n2c(=O)[nH]c3ccc(Oc4c(Cl)cc(NC(=O)c5noc(=O)[nH]5)cc4Cl)cc32)CC1 [Example 13, N-(3,5-dichloro-4-((3-(1-methylcyclopropyl)-2-oxo-2,3-dihydro-1H-benzo[d]imidazol-5-yl)oxy)phenyl)-5-oxo-4,5-dihydro-1,2,4-oxadiazole-3-carboxamide]
[1]
  THRß-Selectivity: 11.0

## COc1nc2ccc(Oc3c(Cl)cc(-n4nc(C#N)c(=O)[nH]c4=O)cc3Cl)cc2n1C1CC1 [Example 2, 2-(3,5-dichloro-4-((1-cyclopropyl-2-methoxy-1H-benzo[d]imidazol-6-yl)oxy)phenyl)-3,5-dioxo-2,3,4,5-tetrahydro-1,2,4-triazine-6-carbonitrile]
[1]
  THRß-Selectivity: 16.9

## CC(C)n1c(=O)[nH]c2ccc(Oc3c(Cl)cc(-n4nc(C#N)c(=O)[nH]c4=O)cc3Cl)cc21 [Example 5, 2-(3,5-dichloro-4-((3-isopropyl-2-oxo-2,3-dihydro-1H-benzo[d]imidazol-5-yl)oxy)phenyl)-3,5-dioxo-2,3,4,5-tetrahydro-1,2,4-triazine-6-carbonitrile]
[1]
  THRß-Selectivity: 5.8

## COc1nc2ccc(Oc3c(Cl)cc(NC(=O)c4noc(=O)[nH]4)cc3Cl)cc2n1C(C)C [Example 6, N-(3,5-dichloro-4-((1-isopropyl-2-methoxy-1H-benzo[d]imidazol-6-yl)oxy)phenyl)-5-oxo-4,5-dihydro-1,2,4-oxadiazole-3-carboxamide]
[1]
  THRß-Selectivity: 16.9

## COc1nc2ccc(Oc3c(Cl)cc(-n4nc(C#N)c(=O)[nH]c4=O)cc3Cl)cc2n1C1(C)CC1 [Example 12, 2-(3,5-dichloro-4-((2-methoxy-1-(1-methylcyclopropyl)-1H-benzo[d]imidazol-6-yl)oxy)phenyl)-3,5-dioxo-2,3,4,5-tetrahydro-1,2,4-triazine-6-carbonitrile]
[2]; IV infusion 1.09 mg/kg
  AUC(0-inf): 3.78 ± 0.704 µg·h/mL
  half-life: 2.67 ± 0.53 h
  clearance: 0.271 ± 0.053 L/h/kg
  Vd: 0.638 ± 0.218 L/kg
[2]; oral 3.0 mg/kg vs IV 1.09 mg/kg
  bioavailability: 95.2%
[2]; oral 3.0 mg/kg
  AUC(0-inf): 10.8 ± 5.63 µg·h/mL
  AUC(0-t): 10.8 ± 5.63 µg·h/mL
  Cmax: 2.02 ± 0.793 µg/mL
  time post-dose at which Cmax was reached: 3.33 ± 1.15 h
[3]; heart/plasma, IV infusion 2.0 mg/kg, read-out: tissue/plasma ratio heart/plasma
  Kp at 2 h: 1.65 ± 2.33
[3]; heart, IV infusion 2.0 mg/kg, read-out: tissue concentration in heart
  concentration at 2 h: 995 ± 1430 ng/g
[3]; kidney/plasma, IV infusion 2.0 mg/kg, read-out: tissue/plasma ratio kidney/plasma
  Kp at 2 h: 1.01 ± 0.212
[3]; kidney, IV infusion 2.0 mg/kg, read-out: tissue concentration in kidney
  concentration at 2 h: 558 ± 103 ng/g
[3]; liver/plasma, IV infusion 2.0 mg/kg, read-out: tissue/plasma ratio liver/plasma
  Kp at 2 h: 5.62 ± 1.09
[3]; liver, IV infusion 2.0 mg/kg, mean±SD, read-out: tissue concentration in liver
  concentration at 2 h: 3040 ± 350 ng/g
[3]; plasma, IV infusion 2.0 mg/kg, read-out: plasma concentration
  concentration at 2 h: 0.569 ± 0.145 µg/mL
[1]
  THRß-Selectivity: 18.7

## COc1nc2ccc(Oc3c(Cl)cc(NC(=O)c4noc(=O)[nH]4)cc3Cl)cc2n1C1(C(F)(F)F)CC1 [Example 24]
[5]
  EC50: 3.23 µM
[1]
  THRß-Selectivity: 6.7
[1]; read-out: EC50 THRß-het
  EC50: 0.48 µM

## COc1nc2ccc(Oc3c(Cl)cc(-n4nc(C#N)c(=O)[nH]c4=O)cc3Cl)cc2n1C(C)(C)C [Example 15, 2-(4-((1-(tert-butyl)-2-methoxy-1H-benzo[d]imidazol-6-yl)oxy)-3,5-dichlorophenyl)-3,5-dioxo-2,3,4,5-tetrahydro-1,2,4-triazine-6-carbonitrile]
[1]
  THRß-Selectivity: 10.3
